# Experimental data reported in patent publication US9067922B2, “Chemical compounds” (Pfizer Limited, priority 2013, dated 2015).
# Target: URAT-1 transporter (Homo sapiens (Human), UniProt Q96S37)
# Assay: URAT-1 inhibitor activity: [14C]-uric acid uptake in CHO-URAT1(L)GFP#8 (CHO#8) cells, scintillation proximity
# Assay type: cell-based
# Conditions: inhibition of [14C]-uric acid (30 nM) uptake into CHO#8 cells; compound 0 to 10 μM; 4 parameter logistic fit
# Summary of the method: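 CHO cells stably expressing human URAT1 long isoform–eGFP fusion, pre-incubated 1 h in chloride-containing buffer pH 7.4, then given 30 nM [14C]-uric acid with compound (0–10 μM, 0.25% DMSO) in chloride-free gluconate buffer pH 7.4. Uptake measured by scintillation proximity on Cytostar plates.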
# Sequence of URAT-1 transporter (Q96S37 other isoform, or with tags, fused parts or gaps): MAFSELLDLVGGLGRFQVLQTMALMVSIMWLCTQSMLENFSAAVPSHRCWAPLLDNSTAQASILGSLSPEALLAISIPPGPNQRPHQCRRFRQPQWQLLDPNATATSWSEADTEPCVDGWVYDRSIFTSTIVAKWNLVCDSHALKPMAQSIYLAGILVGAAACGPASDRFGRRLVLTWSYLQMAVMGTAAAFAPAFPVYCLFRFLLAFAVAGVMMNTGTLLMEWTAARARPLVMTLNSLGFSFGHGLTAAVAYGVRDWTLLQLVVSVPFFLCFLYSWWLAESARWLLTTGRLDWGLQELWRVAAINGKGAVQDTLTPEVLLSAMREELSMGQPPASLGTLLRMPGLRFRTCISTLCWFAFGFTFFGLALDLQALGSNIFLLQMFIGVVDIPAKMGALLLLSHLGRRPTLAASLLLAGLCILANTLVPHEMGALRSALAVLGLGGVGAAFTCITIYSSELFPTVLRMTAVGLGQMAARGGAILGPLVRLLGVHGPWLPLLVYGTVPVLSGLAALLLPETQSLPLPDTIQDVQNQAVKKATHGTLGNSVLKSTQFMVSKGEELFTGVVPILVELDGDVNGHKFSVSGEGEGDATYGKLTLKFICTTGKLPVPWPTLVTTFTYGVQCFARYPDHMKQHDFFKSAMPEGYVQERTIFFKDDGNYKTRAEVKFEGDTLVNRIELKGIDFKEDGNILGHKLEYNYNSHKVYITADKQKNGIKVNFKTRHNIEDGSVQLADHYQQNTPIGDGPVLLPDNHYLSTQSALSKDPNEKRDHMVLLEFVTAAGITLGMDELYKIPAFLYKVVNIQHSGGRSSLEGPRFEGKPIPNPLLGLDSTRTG
row,IC50 [nM],Compound
1,> 10000,"CC(C)(C)c1cc(Oc2ccc(S(=O)(=O)Nc3ccc(F)cn3)cc2C#N)ccc1C#N [Example 161, 4-(3-tert-butyl-4-cyanophenoxy)-3-cyano-N-(5-fluoropyridin-2-yl)benzenesulfonamide]"
2,455,"Cc1ccc(Oc2ccc(S(=O)(=O)Nc3ccc(F)cn3)cc2C#N)c(C)c1Cl [Example 175, 4-(3-chloro-2,4-dimethylphenoxy)-3-cyano-N-(5-fluoropyridin-2-yl)benzenesulfonamide]"
3,383,"Cc1ccc(Oc2ccc(S(=O)(=O)Nc3ccc(F)cn3)cc2C#N)c(Cl)c1 [Example 42, 4-(2-chloro-4-methylphenoxy)-3-cyano-N-(5-fluoropyridin-2-yl)benzenesulfonamide]"
4,877,"N#Cc1cc(S(=O)(=O)Nc2ccc(F)cn2)ccc1Oc1cnc(C2CC2)c(Cl)c1 [Example 180, 4-[(5-chloro-6-cyclopropylpyridin-3-yl)oxy]-3-cyano-N-(5-fluoropyridin-2-yl)benzenesulfonamide]"
5,> 10000,"N#Cc1c(Cl)cccc1Oc1ccc(S(=O)(=O)Nc2ccccn2)cc1 [Example 218, 4-(3-chloro-2-cyanophenoxy)-N-(pyridin-2-yl)benzenesulfonamide]"
6,29,"N#Cc1ccc(Oc2ccc(S(=O)(=O)Nc3ccc(F)cn3)c(F)c2)cc1F [Example 99, 4-(4-cyano-3-fluorophenoxy)-2-fluoro-N-(5-fluoropyridin-2-yl)benzenesulfonamide]"
7,> 10000,"Cc1ccnc(NS(=O)(=O)c2ccc(Oc3cccc(Cl)c3C#N)cc2)n1 [Example 220, 4-(3-chloro-2-cyanophenoxy)-N-(4-methylpyrimidin-2-yl)benzenesulfonamide]"
8,> 10000,O=S(=O)(Nc1ncccn1)c1cc(Cl)c(Oc2ccc(F)c(F)c2)cc1F [compound 210]
9,> 10000,"CN(C)c1cccc(Oc2ccc(S(=O)(=O)Nc3ccc(F)cn3)cc2C#N)c1 [Example 131, 3-cyano-4-[3-(dimethylamino)phenoxy]-N-(5-fluoropyridin-2-yl)benzenesulfonamide]"
10,> 3580,"N#Cc1ccc(Oc2ccc(S(=O)(=O)Nc3ncccn3)cc2C#N)cc1Cl [Example 90, 4-(3-chloro-4-cyanophenoxy)-3-cyano-N-(pyrimidin-2-yl)benzenesulfonamide]"
11,728,"N#Cc1cc(S(=O)(=O)Nc2ccccn2)ccc1Oc1ccc(Cl)cc1I [Example 80, 4-(4-chloro-2-iodophenoxy)-3-cyano-N-(pyridin-2-yl)benzenesulfonamide]"
12,191,"COc1ccc(C)cc1Oc1ccc(S(=O)(=O)Nc2ccc(F)cn2)cc1C#N [Example 155, 3-cyano-N-(5-fluoropyridin-2-yl)-4-(2-methoxy-5-methylphenoxy)benzenesulfonamide]"
13,> 10000,"Cc1ccc(NS(=O)(=O)c2ccc(Oc3cccc(Cl)c3C#N)cc2)nc1 [Example 221, 4-(3-chloro-2-cyanophenoxy)-N-(5-methylpyridin-2-yl)benzenesulfonamide]"
14,2980,"N#Cc1ccc(Oc2ccc(S(=O)(=O)Nc3cnccn3)cc2C#N)cc1Cl [Example 93, 4-(3-chloro-4-cyanophenoxy)-3-cyano-N-(pyrazin-2-yl)benzenesulfonamide]"
15,> 10000,"N#Cc1cc(S(=O)(=O)Nc2ccc(F)cn2)ccc1Oc1c(F)ccc(F)c1F [Example 134, 3-cyano-N-(5-fluoropyridin-2-yl)-4-(2,3,6-trifluorophenoxy)benzenesulfonamide]"
16,241,"N#Cc1cc(F)ccc1Oc1ccc(S(=O)(=O)Nc2ccc(F)cn2)cc1C#N [Example 36, 3-cyano-4-(2-cyano-4-fluorophenoxy)-N-(5-fluoropyridin-2-yl)benzenesulfonamide]"
17,259,"N#Cc1cc(S(=O)(=O)Nc2ccc(F)cn2)ccc1Oc1cccc(F)c1 [Example 52, 3-cyano-4-(3-fluorophenoxy)-N-(5-fluoropyridin-2-yl)benzenesulfonamide]"

row,IC50 [nM],Compound
1,> 10000,"N#Cc1c(Cl)cccc1Oc1ccc(S(=O)(=O)Nc2ncccn2)cc1 [Example 222, 4-(3-chloro-2-cyanophenoxy)-N-(pyrimidin-2-yl)benzenesulfonamide]"
2,6160,"CC(C)c1cc(Oc2ccc(S(=O)(=O)Nc3ccc(F)cn3)cc2C#N)ccc1Cl [Example 164, 4-[4-chloro-3-(propan-2-yl)phenoxy]-3-cyano-N-(5-fluoropyridin-2-yl)benzenesulfonamide]"
3,> 10000,"CCOc1cccc(Oc2ccc(S(=O)(=O)Nc3ccc(F)cn3)cc2C#N)c1 [Example 135, 3-cyano-4-(3-ethoxyphenoxy)-N-(5-fluoropyridin-2-yl)benzenesulfonamide]"
4,> 10000,"Cc1ccc(Oc2ccc(S(=O)(=O)Nc3ccc(F)cn3)cc2C#N)c(Cl)c1C [Example 178, 4-(2-chloro-3,4-dimethylphenoxy)-3-cyano-N-(5-fluoropyridin-2-yl)benzenesulfonamide]"
5,1950,"N#Cc1ccc(Oc2ccc(S(=O)(=O)Nc3ncc(F)cn3)cc2C#N)cc1Cl [Example 91, 4-(3-chloro-4-cyanophenoxy)-3-cyano-N-(5-fluoropyrimidin-2-yl)benzenesulfonamide]"
6,> 1130,"N#Cc1cc(S(=O)(=O)Nc2ccc(F)cn2)ccc1Oc1cccc(C#N)c1Cl [Example 64, 4-(2-chloro-3-cyanophenoxy)-3-cyano-N-(5-fluoropyridin-2-yl)benzenesulfonamide]"
7,> 10000,"N#Cc1cc(S(=O)(=O)Nc2ccc(F)cn2)ccc1Oc1cccc(C(F)(F)F)c1F [Example 29, 3-cyano-N-(5-fluoropyridin-2-yl)-4-[2-fluoro-3-(trifluoromethyl)phenoxy]benzenesulfonamide]"
8,> 10000,"CCc1cccc(Oc2ccc(S(=O)(=O)Nc3ccc(F)cn3)cc2C#N)c1 [Example 2, 3-cyano-4-(3-ethylphenoxy)-N-(5-fluoropyridin-2-yl)benzenesulfonamide]"
9,1,"N#Cc1cc(S(=O)(=O)Nc2ccc(F)cn2)ccc1Oc1ccc(CO)c(Cl)c1 [Example 247, 4-[3-chloro-4-(hydroxymethyl)phenoxy]-3-cyano-N-(5-fluoropyridin-2-yl)benzenesulfonamide]"
10,> 10000,"N#Cc1cc(S(=O)(=O)Nc2ccc(F)cn2)ccc1Oc1c(F)cccc1F [Example 124, 3-cyano-4-(2,6-difluorophenoxy)-N-(5-fluoropyridin-2-yl)benzenesulfonamide]"
11,187,"Cc1c(F)ccc(Oc2ccc(S(=O)(=O)Nc3ccc(F)cn3)cc2C#N)c1Cl [Example 147, 4-(2-chloro-4-fluoro-3-methylphenoxy)-3-cyano-N-(5-fluoropyridin-2-yl)benzenesulfonamide]"
12,594,"Cc1cccnc1NS(=O)(=O)c1ccc(Oc2ccc(C#N)c(Cl)c2)c(C#N)c1 [Example 101, 4-(3-chloro-4-cyanophenoxy)-3-cyano-N-(3-methylpyridin-2-yl)benzenesulfonamide]"
13,123,"CCOc1cc(Cl)ccc1Oc1ccc(S(=O)(=O)Nc2ccc(F)cn2)cc1C#N [Example 110, 4-(4-chloro-2-ethoxyphenoxy)-3-cyano-N-(5-fluoropyridin-2-yl)benzenesulfonamide]"
14,> 5970,"O=S(=O)(Nc1ncccn1)c1cc(Cl)c(Oc2ccc(Cl)cc2OC(F)F)cc1F [Example 83, 5-chloro-4-[4-chloro-2-(difluoromethoxy)phenoxy]-2-fluoro-N-(pyrimidin-2-yl)benzenesulfonamide]"
15,50,"Cc1cccc(C)c1Oc1ccc(S(=O)(=O)Nc2ccc(F)cn2)cc1C#N [Example 152, 3-cyano-4-(2,6-dimethylphenoxy)-N-(5-fluoropyridin-2-yl)benzenesulfonamide]"
16,135,"Cc1cc(Cl)cc(Oc2ccc(S(=O)(=O)Nc3ccc(F)cn3)cc2C#N)c1 [Example 15, 4-(3-chloro-5-methylphenoxy)-3-cyano-N-(5-fluoropyridin-2-yl)benzenesulfonamide]"
17,> 10000,O=S(=O)(Nc1ncc(F)cn1)c1cc(Cl)c(Oc2ccc(F)c(F)c2)cc1F [compound 212]
